Data taken from patent US8471005B2 (Cephalon, Inc., priority 2008, dated 2013).
pIC50: −log10 of the molar value. Where two headings read alike, the source gives them in different places.

Tests used:
ALK = target: T1, ALK (Homo sapiens, UniProt Q9UM73); assay: ALK Kinase Assay (ELISA/TRF, PLC-γ substrate); type: biochemical; conditions: read-out: ALK Potency
T1 construct: host or cells: baculovirus expression system
Outline: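 IC50 values derive from percent inhibition plotted against log10 compound concentration and fitted to a variable-slope sigmoidal equation. The underlying reaction used 30 ng/ml ALK acting on immobilized PLC-γ (10 μg/mL in TBS) at 37° C for 15 minutes, read with Eu-N1 PT66 antibody.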

JAK2 = target: T2, JAK2 (Homo sapiens, UniProt O60674); assay: Recombinant Human JAK2 Kinase Assay (TRF); type: biochemical; conditions: read-out: JAK2 Potency
T2 construct: host or cells: baculovirus expression system
Outline: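 Europium-labelled PY100 antibody reported tyrosine phosphorylation of a Neutravidin-captured biotinyl 15-mer peptide by JAK2 (baculovirus-expressed, 15 ng/ml). Conditions: 20 mM HEPES pH 7.2, 0.2 μM ATP, 1 mM MnCl2, 0.1% BSA, DMSO 2.5% final, 20 min at room temperature.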

[1] = ALK kinase inhibition, 1 μM ATP
[2] = JAK2 kinase inhibition, 0.2 μM ATP

T1 sequence (Q9UM73 19-1620): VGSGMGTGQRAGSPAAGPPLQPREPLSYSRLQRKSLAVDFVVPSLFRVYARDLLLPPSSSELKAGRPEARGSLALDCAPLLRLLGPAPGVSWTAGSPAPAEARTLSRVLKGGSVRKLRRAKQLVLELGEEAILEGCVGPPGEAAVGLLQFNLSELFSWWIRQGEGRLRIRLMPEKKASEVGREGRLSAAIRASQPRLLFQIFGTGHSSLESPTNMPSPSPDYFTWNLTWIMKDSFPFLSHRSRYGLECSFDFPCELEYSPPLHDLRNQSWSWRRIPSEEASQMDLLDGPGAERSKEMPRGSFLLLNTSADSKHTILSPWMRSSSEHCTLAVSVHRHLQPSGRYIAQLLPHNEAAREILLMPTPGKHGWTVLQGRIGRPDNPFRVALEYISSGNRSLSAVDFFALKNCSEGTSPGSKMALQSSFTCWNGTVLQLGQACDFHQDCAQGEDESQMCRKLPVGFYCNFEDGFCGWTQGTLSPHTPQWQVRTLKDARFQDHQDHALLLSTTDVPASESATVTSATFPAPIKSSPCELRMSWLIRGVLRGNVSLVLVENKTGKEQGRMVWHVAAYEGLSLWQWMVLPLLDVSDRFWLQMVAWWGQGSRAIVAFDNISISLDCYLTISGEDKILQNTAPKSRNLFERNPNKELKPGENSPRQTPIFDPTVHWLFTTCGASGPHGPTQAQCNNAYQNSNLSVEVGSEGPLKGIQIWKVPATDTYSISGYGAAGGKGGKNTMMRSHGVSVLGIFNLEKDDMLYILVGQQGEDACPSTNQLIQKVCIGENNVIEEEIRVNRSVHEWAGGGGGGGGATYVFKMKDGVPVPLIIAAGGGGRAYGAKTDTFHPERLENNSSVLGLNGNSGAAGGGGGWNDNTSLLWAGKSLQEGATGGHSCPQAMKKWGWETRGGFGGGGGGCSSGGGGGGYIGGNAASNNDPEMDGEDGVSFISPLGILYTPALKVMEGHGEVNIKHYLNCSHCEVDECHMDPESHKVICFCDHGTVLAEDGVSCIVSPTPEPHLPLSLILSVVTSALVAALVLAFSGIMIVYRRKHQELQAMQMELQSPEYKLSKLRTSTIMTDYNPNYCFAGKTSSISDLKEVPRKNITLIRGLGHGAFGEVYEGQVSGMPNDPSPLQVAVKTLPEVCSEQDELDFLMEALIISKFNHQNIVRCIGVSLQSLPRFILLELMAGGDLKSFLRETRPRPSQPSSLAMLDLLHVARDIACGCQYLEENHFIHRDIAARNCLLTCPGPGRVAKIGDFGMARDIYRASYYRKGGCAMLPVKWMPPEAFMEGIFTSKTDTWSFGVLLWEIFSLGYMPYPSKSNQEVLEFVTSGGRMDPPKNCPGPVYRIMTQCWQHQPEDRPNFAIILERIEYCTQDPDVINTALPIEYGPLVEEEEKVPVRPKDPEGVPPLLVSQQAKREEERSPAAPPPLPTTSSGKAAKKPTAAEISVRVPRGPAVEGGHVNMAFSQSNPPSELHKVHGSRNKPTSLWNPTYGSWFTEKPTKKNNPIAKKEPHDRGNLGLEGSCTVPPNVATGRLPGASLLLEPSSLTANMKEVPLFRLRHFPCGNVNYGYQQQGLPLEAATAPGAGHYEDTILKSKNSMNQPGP
T2 sequence (O60674 whole entry): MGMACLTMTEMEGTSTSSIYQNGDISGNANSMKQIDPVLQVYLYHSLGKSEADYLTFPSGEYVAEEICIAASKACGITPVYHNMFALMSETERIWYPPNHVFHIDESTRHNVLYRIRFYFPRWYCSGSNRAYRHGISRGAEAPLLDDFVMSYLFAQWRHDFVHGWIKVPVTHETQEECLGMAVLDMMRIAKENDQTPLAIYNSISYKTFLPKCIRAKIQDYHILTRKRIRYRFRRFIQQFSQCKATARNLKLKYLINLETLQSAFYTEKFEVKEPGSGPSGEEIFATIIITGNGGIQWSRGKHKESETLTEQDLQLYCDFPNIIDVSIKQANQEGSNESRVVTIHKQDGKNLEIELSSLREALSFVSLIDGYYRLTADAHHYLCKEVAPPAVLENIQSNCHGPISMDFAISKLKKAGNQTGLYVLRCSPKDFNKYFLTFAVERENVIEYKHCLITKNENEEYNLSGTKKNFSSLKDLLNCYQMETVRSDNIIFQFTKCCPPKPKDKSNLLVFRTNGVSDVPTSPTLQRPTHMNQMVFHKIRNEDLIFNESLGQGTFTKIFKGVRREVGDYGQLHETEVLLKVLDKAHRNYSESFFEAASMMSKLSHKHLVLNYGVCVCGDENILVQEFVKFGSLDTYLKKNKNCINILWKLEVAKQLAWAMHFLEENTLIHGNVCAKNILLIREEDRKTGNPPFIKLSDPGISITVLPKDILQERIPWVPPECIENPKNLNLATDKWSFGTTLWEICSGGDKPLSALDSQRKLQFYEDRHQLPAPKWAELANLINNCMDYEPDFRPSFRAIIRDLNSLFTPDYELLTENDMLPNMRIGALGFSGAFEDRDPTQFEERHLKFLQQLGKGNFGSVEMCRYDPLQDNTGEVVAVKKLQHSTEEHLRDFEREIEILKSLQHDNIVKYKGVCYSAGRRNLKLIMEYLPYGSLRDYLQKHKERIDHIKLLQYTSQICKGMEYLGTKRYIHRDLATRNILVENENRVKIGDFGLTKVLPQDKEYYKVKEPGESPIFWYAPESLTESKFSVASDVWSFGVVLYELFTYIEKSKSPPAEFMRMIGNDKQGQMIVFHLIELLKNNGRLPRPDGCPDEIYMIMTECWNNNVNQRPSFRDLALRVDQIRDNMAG

SMILES	pIC50 (ALK; ALK Kinase Inhibition)	pIC50 (JAK2; JAK2 Kinase Inhibition)	pIC50 (ALK; [1])	pIC50 (JAK2; [2])
N#Cc1ccc(-c2ccc3cnc(Nc4ccc(N5CCOCC5)cc4)nn23)cn1 [Example 37, 5-[2-(4-Morpholin-4-yl-phenylamino)-pyrrolo[2,1-f][1,2,4]triazin-7-yl]-pyridine-2-carbonitrile]	5.00 to 6.00	> 7.00	–	–
COc1cc(N2CCC[C@@H](C(=O)N3CCN(C)CC3)C2)ccc1Nc1ncc2ccc(-c3ccccc3OC)n2n1 [Example 463, ((R)-1-{3-Methoxy-4-[7-(2-methoxy-phenyl)-pyrrolo[2,1-f][1,2,4]triazin-2-ylamino]-phenyl}-piperidin-3-yl)-(4-methyl-piperazin-1-yl)-methanone]	> 7.00	6.00 to 7.00	–	–
CC(=O)Nc1cc(Nc2ncc3ccc(-c4cccc(S(=O)(=O)NC(C)(C)C)c4)n3n2)ccc1Cl [Example 888, N-{5-[7-(3-tert-Butylsulfamoyl-phenyl)-pyrrolo[2,1-f][1,2,4]triazin-2-ylamino]-2-chloro-phenyl}-acetamide]	–	–	6.00 to 7.00	> 7.00
COc1cc(C2CCNCC2)ccc1Nc1ncc2ccc(-c3ccccc3N(C)S(C)(=O)=O)n2n1 [Example 819, N-{2-[2-(2-Methoxy-4-piperidin-4-yl-phenylamino)-pyrrolo[2,1-f][1,2,4]triazin-7-yl]-phenyl}-N-methyl-methanesulfonamide]	–	–	> 7.00	5.00 to 6.00
COc1cc(N2CCC[C@@H](CN3CCN(C)CC3)C2)ccc1Nc1ncc2ccc(-c3ccccc3OC)n2n1 [Example 470, {2-Methoxy-4-[(S)-3-(4-methyl-piperazin-1-ylmethyl)-piperidin-1-yl]-phenyl}-[7-(2-methoxy-phenyl)-pyrrolo[2,1-f][1,2,4]triazin-2-yl]-amine]	–	–	> 7.00	6.00 to 7.00
COc1cc(CN2CCNCC2)ccc1Nc1ncc2ccc(-c3ccccc3N(C)S(C)(=O)=O)n2n1 [Example 1223, N-{2-[2-(2-Methoxy-4-piperazin-1-ylmethyl-phenylamino)-pyrrolo[2,1-f][1,2,4]triazin-7-yl]-phenyl}-N-methyl-methanesulfonamide]	–	–	> 7.00	5.00 to 6.00
COc1cc2c(cc1Nc1ncc3ccc(-c4ccccc4OC)n3n1)CN(C1CCN(C)CC1)C2 [Example 852, [6-Methoxy-2-(1-methyl-piperidin-4-yl)-2,3-dihydro-1H-isoindol-5-yl]-[7-(2-methoxy-phenyl)-pyrrolo[2,1-f][1,2,4]triazin-2-yl]-amine]	–	–	> 7.00	> 7.00
COc1cc(C2CCN(CC(N)=O)CC2)ccc1Nc1ncc2ccc(-c3ccc(C)cc3N(C)S(C)(=O)=O)n2n1 [Example 1280, 2-[4-(4-{7-[2-(Methanesulfonyl-methyl-amino)-4-methyl-phenyl]-pyrrolo[2,1-f][1,2,4]triazin-2-ylamino}-3-methoxy-phenyl)-piperidin-1-yl]-acetamide]	–	–	> 7.00	6.00 to 7.00
Cc1nc2ccc(Nc3ncc4ccc(-c5cccc(S(=O)(=O)NC(C)(C)C)c5)n4n3)cc2n1C [Example 1331, N-tert-Butyl-3-[2-(2,3-dimethyl-3H-benzimidazol-5-ylamino)-pyrrolo[2,1-f][1,2,4]triazin-7-yl]-benzenesulfonamide]	–	–	6.00 to 7.00	> 7.00
COc1ccccc1-c1ccc2cnc(Nc3ccc4nc(CN5CCN(C)CC5)[nH]c4c3)nn12 [Example 1526, [7-(2-Methoxy-phenyl)-pyrrolo[2,1-f][1,2,4]triazin-2-yl]-[2-(4-methyl-piperazin-1-ylmethyl)-3H-benzimidazol-5-yl]-amine]	6.00 to 7.00	> 7.00	–	–
COc1ccccc1-c1ccc2cnc(Nc3ccc4c(c3OC)CN(C3CCN(C)CC3)C4)nn12 [Example 853, [4-Methoxy-2-(1-methyl-piperidin-4-yl)-2,3-dihydro-1H-isoindol-5-yl]-[7-(2-methoxy-phenyl)-pyrrolo[2,1-f][1,2,4]triazin-2-yl]-amine]	–	–	> 7.00	6.00 to 7.00
CN1CCN(Cc2nc3cc(Nc4ncc5ccc(-c6ccc(S(C)(=O)=O)cc6)n5n4)ccc3[nH]2)CC1 [Example 1542, [7-(4-Methanesulfonyl-phenyl)-pyrrolo[2,1-f][1,2,4]triazin-2-yl]-[2-(4-methyl-piperazin-1-ylmethyl)-1H-benzimidazol-5-yl]-amine]	5.00 to 6.00	> 7.00	–	–
CC(=O)N1CCc2ccc(Nc3ncc4ccc(-c5cccc(NC(=O)C(C)(C)C)c5)n4n3)cc21 [Example 882, N-{3-[2-(1-Acetyl-2,3-dihydro-1H-indol-6-ylamino)-pyrrolo[2,1-f][1,2,4]triazin-7-yl]-phenyl}-2,2-dimethyl-propionamide]	–	–	< 5.00	> 7.00
Cc1cc(N2CCN(C)CC2)ccc1Nc1ncc2ccc(-c3ccc(S(C)(=O)=O)cc3)n2n1 [Example 67, [7-(4-Methanesulfonyl-phenyl)-pyrrolo[2,1-f][1,2,4]triazin-2-yl]-[2-methyl-4-(4-methyl-piperazin-1-yl)-phenyl]-amine]	6.00 to 7.00	> 7.00	–	–
COc1ccc(-c2ccc3cnc(Nc4cccc(C5C(=O)N(C)CCN5C)c4)nn23)cn1 (centres unmarked) [Example 1081, 3-{3-[7-(6-Methoxy-pyridin-3-yl)-pyrrolo[2,1-f][1,2,4]triazin-2-ylamino]-phenyl}-1,4-dimethyl-piperazin-2-one]	–	–	< 5.00	> 7.00
COc1cc2c(cc1Nc1ncc3ccc(-c4ccccc4OC)n3n1)CCC1(CCN(C)CC1)O2 [Example 997, 7-methoxy-N-[7-(2-methoxyphenyl)pyrrolo[2,1-f][1,2,4]triazin-2-yl]-1′-methyl-3,4-dihydrospiro[chromene-2,4′-piperidin]-6-amine]	–	–	> 7.00	6.00 to 7.00
COc1ccccc1-c1ccc2cnc(Nc3ccc(C4CN(CC(N)=O)C4)cc3)nn12 [Example 583, 2-(3-{4-[7-(2-Methoxy-phenyl)-pyrrolo[2,1-f][1,2,4]triazin-2-ylamino]-phenyl}-azetidin-1-yl)-acetamide]	–	–	6.00 to 7.00	> 7.00
COc1cc(N2CCC(N3CCCOCC3)CC2)ccc1Nc1ncc2ccc(-c3ccccc3OC)n2n1 [Example 780, [2-Methoxy-4-(4-[1,4]oxazepan-4-yl-piperidin-1-yl)-phenyl]-[7-(2-methoxy-phenyl)-pyrrolo[2,1-f][1,2,4]triazin-2-yl]-amine]	–	–	> 7.00	> 7.00
CCN1CCOC(c2ccc(Nc3ncc4ccc(-c5cc(Cl)ccc5OC)n4n3)cc2)C1 (centres unmarked) [Example 253, [7-(5-Chloro-2-methoxy-phenyl)-pyrrolo[2,1-f][1,2,4]triazin-2-yl]-[4-(4-ethyl-morpholin-2-yl)-phenyl]-amine]	> 7.00	> 7.00	–	–
CN1CCN(C2CCN(c3ccc(Nc4ncc5ccc(-c6cccnc6)n5n4)cc3)CC2)CC1 [Example 313, {4-[4-(4-Methyl-piperazin-1-yl)-piperidin-1-yl]-phenyl}-(7-pyridin-3-yl-pyrrolo[2,1-f][1,2,4]triazin-2-yl)-amine]	6.00 to 7.00	> 7.00	–	–
COc1cc(C2CCN(C(=O)C(C)(C)N)CC2)ccc1Nc1ncc2ccc(-c3ccccc3N(C)S(C)(=O)=O)n2n1 [Example 822, N-[2-(2-{4-[1-(2-Amino-2-methyl-propionyl)-piperidin-4-yl]-2-methoxy-phenylamino}-pyrrolo[2,1-f][1,2,4]triazin-7-yl)-phenyl]-N-methyl-methanesulfonamide]	–	–	> 7.00	6.00 to 7.00
CN1CCN(c2ccc(Nc3ncc4ccc(-c5ccccc5OCC(=O)OC(C)(C)C)n4n3)cc2)CC1 [Example 1173, (2-{2-[4-(4-Methyl-piperazin-1-yl)-phenylamino]-pyrrolo[2,1-f][1,2,4]triazin-7-yl}-phenoxy)-acetic acid tert-butyl ester]	–	–	5.00 to 6.00	> 7.00
COc1cc(N2CCC(N3CCOCC3)CC2)ccc1Nc1ncc2ccc(-c3ccccc3S(C)(=O)=O)n2n1 [Example 540, [7-(2-Methanesulfonyl-phenyl)-pyrrolo[2,1-f][1,2,4]triazin-2-yl]-[2-methoxy-4-(4-morpholin-4-yl-piperidin-1-yl)-phenyl]-amine]	–	–	5.00 to 6.00	5.00 to 6.00
CN1CCN(c2cccc(Nc3ncc4ccc(-c5cccc(S(=O)(=O)NC(C)(C)C)c5)n4n3)c2)CC1 [Example 883, N-tert-Butyl-3-{2-[3-(4-methyl-piperazin-1-yl)-phenylamino]-pyrrolo[2,1-f][1,2,4]triazin-7-yl}-benzenesulfonamide]	–	–	> 7.00	> 7.00
Cc1cc(Nc2ncc3ccc(-c4cccc(Cl)c4)n3n2)ccc1N1CCOCC1 [Example 66, [7-(3-Chloro-phenyl)-pyrrolo[2,1-f][1,2,4]triazin-2-yl]-(3-methyl-4-morpholin-4-yl-phenyl)-amine]	5.00 to 6.00	> 7.00	–	–
CS(=O)(=O)Nc1cccc(-c2ccc3cnc(Nc4ccc(F)c(N5CCOCC5)c4)nn23)c1 [Example 390, N-{3-[2-(4-Fluoro-3-morpholin-4-yl-phenylamino)-pyrrolo[2,1-f][1,2,4]triazin-7-yl]-phenyl}-methanesulfonamide]	6.00 to 7.00	> 7.00	–	–
COc1cc(CCN2CCOCC2)ccc1Nc1ncc2ccc(-c3ccccc3OC)n2n1 [Example 492, [2-Methoxy-4-(2-morpholin-4-yl-ethyl)-phenyl]-[7-(2-methoxy-phenyl)-pyrrolo[2,1-f][1,2,4]triazin-2-yl]-amine]	–	–	> 7.00	6.00 to 7.00
COc1ccc(OC)c(-c2ccc3cnc(Nc4ccc(N5CCOCC5)cc4)nn23)c1 [Example 424, [7-(2,5-Dimethoxy-phenyl)-pyrrolo[2,1-f][1,2,4]triazin-2-yl]-(4-morpholin-4-yl-phenyl)-amine]	6.00 to 7.00	> 7.00	–	–
